Tests used:
[1] = Electrostriction measurement of membrane elasticity; format: physicochemical; settings: 1–1,000 µM NFx
Protocol: Membrane elasticity measurements were performed as described previously ([Vitovic et al., 2013]). Briefly, a 1 kHz sine wave with an amplitude of 100 mV was applied to the membrane using a wave generator (Rigol DG821; Rigol Technologies). Due to the nonlinear dependence of membrane capacitance on the voltage V [C = C0 (1 + αV^2)], where C0 is the capacitance at V = 0 and α is the electrostriction coefficient, a third current harmonic with frequency 3 kHz and amplitude A3 is generated in addition to the basic first current harmonic, A1 (frequency 1 kHz).

TREK-2 Y315A = target: T1, TREK-2 Y315A (Homo sapiens, UniProt P57789, Y310A); experiment: Single-channel recordings of TREK-2 Y315A mutant in excised patches from HEK293 cells; format: cell-based; settings: 10 µM NFx; before desensitization (effect dramatically reduced within ∼30 s)
T1 construct: expressed in transfected cells; host or cells: HEK293 cells, transient transfection with pcDNA3
T1 sequence (P57789 1-543 isoform P57789-4 Y315A): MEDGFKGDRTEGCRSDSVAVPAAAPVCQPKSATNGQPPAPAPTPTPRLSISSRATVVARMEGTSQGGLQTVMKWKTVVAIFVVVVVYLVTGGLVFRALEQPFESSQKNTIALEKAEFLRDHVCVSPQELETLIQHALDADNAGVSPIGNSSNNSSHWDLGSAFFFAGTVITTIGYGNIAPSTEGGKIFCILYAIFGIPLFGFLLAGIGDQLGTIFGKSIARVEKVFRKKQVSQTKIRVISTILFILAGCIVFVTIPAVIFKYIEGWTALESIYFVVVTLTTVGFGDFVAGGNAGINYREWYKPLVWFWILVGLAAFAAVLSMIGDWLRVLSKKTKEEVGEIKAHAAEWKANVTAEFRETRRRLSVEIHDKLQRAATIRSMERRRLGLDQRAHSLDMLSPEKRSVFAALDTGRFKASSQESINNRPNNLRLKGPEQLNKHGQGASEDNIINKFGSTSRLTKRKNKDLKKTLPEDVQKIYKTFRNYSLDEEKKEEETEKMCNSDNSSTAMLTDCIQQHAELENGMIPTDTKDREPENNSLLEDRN
Protocol: HEK293 cells were cultured in DMEM (Sigma) containing 10% FBS (Life Technologies), 3 mM glucose, and 2 mM glutamine at 37°C in a humidified atmosphere of 5% CO2/[…] at 37°C. Cells were transiently transfected with 0.2 µg channel pcDNA3 per dish using FuGENE 6 according to the manufacturer’s instructions. Cells were used 1–2 d after transfection.
For currents recorded in Xenopus laevis oocytes, giant-patch electrodes were pulled from thick-walled borosilicate glass and polished to give pipette resistances of ∼0.3–0.5 MΩ when filled with patch solution. […] Patches were perfused via a gravity-flow perfusion system and a HEKA EPC 10 USB single computer–controlled amplifier was used and currents recorded using a Patchmaster v2 × 90.5 (HEKA Electronics), filtered at 1 kHz, and sampled at 10 kHz. For currents recorded in HEK293 cells, patch electrodes were pulled from thick-walled borosilicate glass and polished to give pipette resistances of ∼3–5 MΩ when filled with patch solution. The currents were recorded from excised patches with both intracellular and extracellular solution containing 200 mM KCl and 10 mM HEPES (pH 6.0 with KOH). […] Data were acquired with pClamp and recorded using an Axopatch 200B (Molecular Devices), filtered at 5 kHz, and sampled at 200 kHz. Single-channel currents were analyzed in an identical manner to those obtained from bilayers (see above). […]

effect on the modulus of elasticity (E⊥) [1]: no obvious effect
Compound: NCCC(Oc1ccc(C(F)(F)F)cc1)c1ccccc1 (centres unmarked) [NFx, norfluoxetine]
initial reduction of channel Po (TREK-2 Y315A): > 90%
